PMC8237569 (Proceedings of the National Academy of Sciences of the …, 2021)
≈ marks a conversion by molar mass, not a printed value.

What was measured:
[1] = tested on: TA-C–resistant M. tuberculosis strains (fbiC, fgd1 mutants); assay type: cell-based
[2] = tested on: NC1=NC2(CCCCC2)N(c2ccc(OCc3cn(CCCCOc4ccc5ccc(=O)oc5c4)nn3)cc2)C(N)=N1; assay: purified protein, by the assay type; settings: pH 7.5

Compound	MIC50 [1] [µM]	other results
Nc1ccc(C(=O)O)c(O)c1 [PAS, para-aminosalicylic acid]	0.2 (≈ 0.0306 µg/mL)	–
O=[N+]([O-])c1cn2c(n1)OC[C@@H](OCc1ccc(OC(F)(F)F)cc1)C2 [PTM, pretomanid]	>100	–
Rv1558 (Mycobacterium tuberculosis H37Rv)	–	Km [2]: 10.01 ± 1.6 µM
NNC(=O)c1ccncc1 [INH, isoniazid]	0.4 (≈ 0.0549 µg/mL)	–
CO[C@H]1/C=C/O[C@@]2(C)Oc3c(C)c(O)c4c(O)c(c(/C=N/N5CCN(C)CC5)c(O)c4c3C2=O)NC(=O)/C(C)=C\C=C\[C@H](C)[C@H](O)[C@@H](C)[C@@H](O)[C@@H](C)[C@H](OC(C)=O)[C@@H]1C [RIF, rifampicin]	–	MIC50, RIF [1]: 0.0016 µM (≈ 0.00132 µg/mL)
